Experimental data reported in paper PMC7041945, “Misfolded proteins bind and activate death receptor 5 to trigger apoptosis during unresolved endoplasmic reticulum stress” (eLife, 2020).

Legend:
GAPDH = assay: qPCR of GAPDH (reference transcript); assay type: cell-based; conditions: 24 hr, Rep 2
[1] = test system: caspase 8 in HCT116 lysates; assay: Caspase 8 activity (caspase glo 8) of cell lysates / IP inputs; assay type: cell-based, Homo sapiens; conditions: for Caspase 8 activity, fold change relative to GFP: AVG (n = 3 tech reps); for AVG fold change relative to GFP: average over lysate dilutions
Method: Cells harvested from a 6-well plate were resuspended in 100 μl of lysis buffer (30 mM HEPES pH 7.2, 150 mM NaCl, 1% Triton X-100) and lysed via needle shearing (25G, 10 passes) followed by a 30 min incubation on ice. Supernatant was collected after centrifuging at 1000xg for 5 min. For the caspase activity assay, 10 μl of supernatant diluted with lysis buffer (1:25, 1:50, 1:100 to stay within linear range of luminescence measurements) was incubated with 10 μl of the luminogenic caspase glo 8 substrate (Promega #PRG8200) in a 384-white walled plate (Corning 3574) for 45 min at RT before measuring luminescence on a Spectramax-M5 plate reader.

HCT116 cells = assay: Annexin V (and SytoxBlue) flow cytometry for apoptosis; assay type: cell-based, Homo sapiens; conditions: for Annexin V +, Sytox Blue + cells / Annexin V +, Sytox Blue - cells / Annexin V -, Sytox Blue - cells: transfected 24 hr
Method: Cells seeded in a 6-well plate were transfected with the specified plasmid for 24 hr and harvested via trypsinization in complete media to allow a 30 min recovery at 37°C. The samples were then centrifuged at 500xg for 5 min and resuspended In 150 μl of a 1:20 dilution of Annexin V-AlexaFluor 647 conjugate (Thermo Scientific #A23204). Samples were transferred to a 96-well U-bottom plate and incubated in the dark for 15 min at RT. The distribution of apoptotic cells was determined by flow cytometry on a BD LSR II.

DR5 = assay: GFP immunoprecipitation: DR5 (FADD, caspase 8) recovered with GFP-tagged protein, Western blot; assay type: cell-based, Homo sapiens; conditions: for fraction IP'ed: beads/input
Method: 15 cm dishes were seeded with 4 million HCT116 cells and allowed to recover for 18 hr prior to transfection. Samples were then transfected for 24 hr with the GFP-tagged ER trafficked protein, cytosolic GFP, or empty vector. To harvest apoptotic and living cells for each sample, all media and washes were collected. Cells were scraped in 2 ml of cold PBS and combined with the media and washes. Samples were centrifuged to pellet cells, washed with 1 ml cold PBS, and flash frozen in liquid N2 prior to lysis.
The cell pellets were resuspended in 750 μl of 30 mM HEPES pH 7.2, 150 mM NaCl, 1% Triton X-100 with 1x Roche protease inhibitor cocktail (if used subsequently for caspase glo 8 assay) or with 5x Roche protease inhibitor cocktail (if used for immunoblotting). The cells were lysed by mechanical shearing through a 25G needle for 13–15 plunges followed by incubation on ice for 30 min. The lysate was centrifuged at 2000xg for 5 min to remove debris and then incubated with 30 μl of GFP-Trap magnetic agarose beads (Chromotek gtma-20) for 4 hr at 4°C. The beads were then washed with 750 μl of lysis buffer for 10 min at 4°C for three rounds.
For Western blots, samples were eluted by adding 35 μl of non-reducing SDS gel loading buffer (50 mM Tris-HCl (pH 6.8), 2% SDS, 0.1% bromophenol blue, 10% glycerol) and incubated for 10 min at 70°C. The beads were then magnetically removed from the eluted sample before adding DTT to a final concentration of 25 mM. The entire sample was loaded onto the gel and immunoblotted for DR5, caspase 8, and GFP, in that order.

[2] = empty + Tg, siRNA non-targeting, stain AnnexinV-647, 2018-06-27
[3] = siRNA scrambled, 2017-01-17 Replicate
[4] = siRNA scrambled, 2018-06-21 Rep 1
[5] = siRNA scrambled, 2018-06-21 Rep 2
[6] = siRNA scrambled, mean of 3 replicates
[7] = GFP IP, HCT116, average of Rep 1 and Rep 2, SEM in separate column
[8] = GFP IP, HCT116, band intensity, Rep 1

C/C=C(/C)C(=O)O[C@H]1C(C)=C2[C@H]([C@@H]1OC(=O)CCCCCCC)[C@@](C)(OC(C)=O)C[C@H](OC(=O)CCC)[C@@]1(O)[C@H]2OC(=O)[C@@]1(C)O [thapsigargin, reference compound]
Cq GAPDH (GAPDH; mean of 3 replicates): 18.752 | avg. fold induction GAPDH (GAPDH; relative to empty traffo, mean of 3 replicates): 1.009 | fold induction GAPDH (GAPDH; relative to empty traffo, replicate 1): 0.7989 | fold induction GAPDH (GAPDH; relative to empty traffo, replicate 2): 1.157 | fold induction GAPDH (GAPDH; relative to empty traffo, replicate 3): 1.071 | 2^-(deltaCq) GAPDH (GAPDH; replicate 1): 0.8014 | Cq GAPDH (GAPDH; replicate 1): 19.0714 | Cq(sample) - avg Cq(GAPDH), GAPDH (GAPDH; replicate 1): 0.3194 | 2^-(deltaCq) GAPDH (GAPDH; replicate 2): 1.161 | Cq GAPDH (GAPDH; replicate 2): 18.5367 | Cq(sample) - avg Cq(GAPDH), GAPDH (GAPDH; replicate 2): -0.2154 | 2^-(deltaCq) GAPDH (GAPDH; replicate 3): 1.075 | Cq GAPDH (GAPDH; replicate 3): 18.648 | Cq(sample) - avg Cq(GAPDH), GAPDH (GAPDH; replicate 3): -0.104 | average fold change relative to empty ([1]; HCT116, rep 1, no siRNA named, average of 4 dilutions): 1.771 fold change | fold change relative to empty ([1]; input, dilution 0.01, rep1): 1.802 | fold change relative to empty ([1]; input, dilution 0.01, rep2): 2.141 | fold change relative to empty ([1]; input, dilution 0.01, rep3): 1.451 | fold change relative to empty ([1]; input, dilution 0.02, rep1): 2.44 | fold change relative to empty ([1]; input, dilution 0.02, rep2): 1.968 | fold change relative to empty ([1]; input, dilution 0.02, rep3): 1.816 | avg fold change ([1]; input, dilution 0.02, second listing, relative to avg. empty, average of rep1-rep3): 2.105 | fold change relative to empty ([1]; input, dilution 0.02, second listing, rep2): 1.992 | fold change relative to empty ([1]; input, dilution 0.02, second listing, rep3): 1.959 | AnnexinV+ (Statistic) (HCT116 cells; [2]): 18.2 | AnnexinV- (Statistic) (HCT116 cells; [2]): 81.8 | Difference between means (HCT116 cells; empty w Tg vs. empty): 28 ± 7.5 | Mean ± SEM (Prism T-tests, Annexin V for MPZ-GFP) (HCT116 cells; no siDR5, mean ± SEM, N=3, values agree with avg Annexin V+): 35 ± 6.7 N=3 | Annexin V+ (HCT116 cells; [3]): 48.1 | Annexin V- (HCT116 cells; [3]): 51.9 | AnnexinV+ (Statistic, single cells) (HCT116 cells; siRNA scrambled, 2018-01-17 MPZ, gate all cells/Single Cells/AnnexinV+, Tg sample with empty construct): 48.1 | AnnexinV- (Statistic, single cells) (HCT116 cells; siRNA scrambled, 2018-01-17 MPZ, gate all cells/Single Cells/AnnexinV-, Tg sample with empty construct): 51.9 | GFP+ (Statistic, single cells) (HCT116 cells; siRNA scrambled, 2018-01-17 MPZ, gate all cells/Single Cells/GFP+, Tg sample with empty construct): 0.011 | GFP- (Statistic, single cells) (HCT116 cells; siRNA scrambled, 2018-01-17 MPZ, gate all cells/Single Cells/GFP-, Tg sample with empty construct): 100 | Q1: APC-A- , DAPI-A+ (Statistic, single cells) (HCT116 cells; siRNA scrambled, 2018-01-17 MPZ, gate all cells/Single Cells/Q1, Tg sample with empty construct): 10.8 | Q2: APC-A+ , DAPI-A+ (Statistic, single cells) (HCT116 cells; siRNA scrambled, 2018-01-17 MPZ, gate all cells/Single Cells/Q2, Tg sample with empty construct): 31.2 | Q3: APC-A+ , DAPI-A- (Statistic, single cells) (HCT116 cells; siRNA scrambled, 2018-01-17 MPZ, gate all cells/Single Cells/Q3, Tg sample with empty construct): 13.1 | Q4: APC-A- , DAPI-A- (Statistic, single cells) (HCT116 cells; siRNA scrambled, 2018-01-17 MPZ, gate all cells/Single Cells/Q4, Tg sample with empty construct): 45 | SytoxBlue+ (Statistic, single cells) (HCT116 cells; siRNA scrambled, 2018-01-17 MPZ, gate all cells/Single Cells/SytoxBlue+, Tg sample with empty construct): 40.3 | SytoxBlue- (Statistic, single cells) (HCT116 cells; siRNA scrambled, 2018-01-17 MPZ, gate all cells/Single Cells/SytoxBlue-, Tg sample with empty construct): 59.7 | dead cells (Statistic) (HCT116 cells; siRNA scrambled, 2018-01-17 MPZ, gate dead cells of all events, Tg sample with empty construct): 26.5 | FITC-A+ (Statistic, dead cells) (HCT116 cells; siRNA scrambled, 2018-01-17 MPZ, gate dead cells/Single Cells/FITC-A+, Tg sample with empty construct): 0.016 | FITC-A- (Statistic, dead cells) (HCT116 cells; siRNA scrambled, 2018-01-17 MPZ, gate dead cells/Single Cells/FITC-A-, Tg sample with empty construct): 100 | Annexin V+ (HCT116 cells; [4]): 32.2 | Annexin V- (HCT116 cells; [4]): 67.8 | Annexin V+ (HCT116 cells; [5]): 25.7 | Annexin V- (HCT116 cells; [5]): 74.3 | avg Annexin V+ (HCT116 cells; [6]): 35.3333 | avg Annexin V- (HCT116 cells; [6]): 64.6667

FTWRYQPEGGRDAISIFHYA [MPZ-ecto peptide-eGFP, expressed construct: MPZ ectodomain replaced by the MPZ-ecto peptide, GFP-tagged]
Caspase 8 activity, fold change relative to GFP ([1]; Rep 1, HCT116, ecto 400 ng, YYEE and Arom-to-E 200 ng): 2.6 | Caspase 8 activity, fold change relative to GFP ([1]; Rep 2, HCT116, ecto 400 ng, YYEE and Arom-to-E 200 ng): 2.183 | AVG fold change relative to GFP ([1]; Rep 2, HCT116): 2.183 fold | Caspase 8 activity, fold change relative to GFP ([1]; Rep 3, HCT116, ecto 400 ng, YYEE and Arom-to-E 200 ng): 2.309 | AVG fold change relative to GFP ([1]; Rep 3, HCT116): 2.309 fold | Caspase 8 activity, fold change relative to GFP, avg of biological replicates ([1]; avg of n = 3 biol rep, HCT116, ecto 400 ng, YYEE and Arom-to-E 200 ng, SEM of n = 3 in own column): 2.364 | annexin V staining (HCT116 cells; HCT116, 24 hr, relative to empty vector or WT): increased annexin V staining relative to the empty vector | Annexin V +, Sytox Blue + cells (HCT116 cells; + z-VAD): 8.37% of cells | Annexin V +, Sytox Blue - cells (HCT116 cells; + z-VAD (20 μm [sic])): 3.77% of cells | Annexin V -, Sytox Blue - cells (HCT116 cells; + z-VAD (20 μm [sic])): 86.3% of cells | Annexin V +, Sytox Blue + cells (HCT116 cells; no z-VAD): 19.1% of cells | Annexin V +, Sytox Blue - cells (HCT116 cells; no z-VAD): 11.5% of cells | Annexin V -, Sytox Blue - cells (HCT116 cells; no z-VAD): 65.3% of cells | % IP'ed, average (DR5; [7]): 7.7348% | fraction IP'ed, average (DR5; [7]): 0.07735 | input (*dilution factor) (DR5; GFP IP, HCT116, band intensity, background subtracted, divided by dilution factor 0.1, Rep 2): 64608140 | beads (*dilution factor) (DR5; GFP IP, HCT116, band intensity, background subtracted, divided by dilution factor 0.25, Rep 2): 5226200 | beads (*diluton factor) (DR5; [8]): 10106176 | input (*dilution factor) (DR5; [8]): 136930440 | fraction IP'ed (DR5; GFP IP, HCT116, Rep 1): 0.07381 | fraction IP'ed (DR5; GFP IP, HCT116, Rep 2): 0.08089 | Mean ± SEM of fraction IP'ed (DR5; GFP IP, HCT116, n=2, from unpaired t test sheet): 0.07735 ± 0.003543, n=2 | DR5 complex proteins in GFP immunoprecipitates (DR5; HCT116, 24 hr post-transfection): enriched for DR5 relative to the Glu-containing mutant peptides | DR5 beads (*diluton factor) (DR5; Rep 1, DR5 blot densitometry of beads (GFP IP), background subtracted, adjusted for dilution factor 0.25): 10106176 | DR5 input (*dilution factor) (DR5; Rep 1, DR5 blot densitometry of input, background subtracted, adjusted for dilution factor 0.1): 136930440 | DR5 fraction IP'ed (DR5; Rep 1, GFP IP, beads over input): 0.07381
